Compound in test [1]: CC(=O)Nc1cccc(-n2c(=O)n(C3CC3)c(=O)c3c(Nc4ccc(I)cc4F)n(C)c(=O)c(C)c32)c1 [Trametinib]
Conditions: max 1 µM. An outline of the steps: (§1)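 In 1536-well plates, cancer cell lines in 7.5 μl DMEM/F12 or RPMI with 10% FBS spent 24 hours at 37°C and 5% CO2 and were then dosed for 72 hours with final DMSO typically 0.2%. Viability was read by CellTiter-Glo 2.0 luminescence and scaled between blank-well and DMSO-well means. The single-agent IC50 was fitted from dose responses using a logistic curve in a non-linear mixed effects model, and that logistic curve had two parameters.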

Compound in test [2]: C[C@@H](c1ccc2nccn2c1)n1nnc2ncc(-c3cnn(C)c3)nc21 [Savolitinib]
To be noted: max 1 µM. In outline: as §1

Compound in test [3]: CCc1c2c(nc3ccc(O)cc13)-c1cc3c(c(=O)n1C2)COC(=O)[C@]3(O)CC [SN-38]
To be noted: max 0.3 µM. An outline of the steps: as §1

Compound in test [4]: COc1cccc2c1C(=O)c1c(O)c3c(c(O)c1C2=O)C[C@@](O)(C(=O)CO)C[C@@H]3O[C@H]1C[C@H](N)[C@H](O)[C@H](C)O1 [Doxorubicin]
Conditions: max 1 µM. In outline: as §1

Compound in test [5]: C[C@@H]1COCCN1C2=NC(=NC(=C2)C3(CC3)[S@](=N)(=O)C)C4=C5C=CNC5=NC=C4 [AZD6738]
To be noted: max 10 µM. An outline of the steps:
as §1

Compound in test [6]: C[C@@H](Nc1cc(F)cc(F)c1)c1cc(C(=O)N(C)C)cc2c(=O)cc(N3CCOCC3)oc12 [AZD8186]
To be noted: max 3 µM. In outline: as §1

Compound in test [7]: COc1cccc(OCCCN)c1-c1cc(Nc2cnc(C#N)cn2)n[nH]1 [Prexasertib]
Conditions: max 1 µM. An outline of the steps:
as §1

Compound in test [8]: CC1(C)CCC(CN2CCN(c3ccc(C(=O)NS(=O)(=O)c4ccc(NCC5CCOCC5)c([N+](=O)[O-])c4)c(Oc4cnc5[nH]ccc5c4)c3)CC2)=C(c2ccc(Cl)cc2)C1 [Venetoclax]
To be noted: max 1 µM. An outline of the steps: as §1

Compound in test [9]: C=CCn1c(=O)c2cnc(Nc3ccc(N4CCN(C)CC4)cc3)nc2n1-c1cccc(C(C)(C)O)n1 [AZD1775]
To be noted: max 3 µM. An outline of the steps:
as §1

Compound in test [10]: CC1=CN2[C@@H](C1)C=NC3=CC(=C(C=C3C2=O)OC)OCCCCCOC4=C(C=C5C(=C4)N=C[C@@H]6CC(=CN6C5=O)C)OC [SG3199]
Conditions: max 0.001 µM. An outline of the steps:
as §1

Compound in test [11]: Cc1c2c(nn1C)CSCc1cc(n(C)n1)CSc1cc(c3ccccc3c1)OCCCc1c(C(=O)O)n(C)c3c-2c(Cl)ccc13 [AZD5991]
To be noted: max 1 µM. An outline of the steps: as §1

Compound in test [12]: Cn1cnc2c(F)c(Nc3ccc(Br)cc3Cl)c(C(=O)NOCCO)cc21 [Selumetinib]
Conditions: max 10 µM. In outline: as §1

Compound in test [13]: CC(C)n1c(=O)n(C)c2cnc3cc(F)c(-c4ccc(OCCCN5CCCCC5)nc4)cc3c21 [AZD1390]
To be noted: max 0.3 µM. In outline: as §1

Compound in test [14]: COc1cc2ncnc(Nc3ccc(F)c(Cl)c3)c2cc1OCCCN1CCOCC1 [Gefitinib]
To be noted: max 10 µM. An outline of the steps: as §1

Compound in test [15]: Cc1nc(-c2cn3c(n2)-c2ccc(-c4cnn(C(C)(C)C(N)=O)c4)cc2OCC3)n(C(C)C)n1 [Taselisib]
Conditions: max 10 µM. In outline: as §1

Compound in test [16]: CS(=O)(=O)CCNCc1ccc(-c2ccc3ncnc(Nc4ccc(OCc5cccc(F)c5)c(Cl)c4)c3c2)o1 [Lapatinib]
To be noted: max 10 µM. In outline:
as §1

Compound in test [17]: CCN(CCO)CCCOc1ccc2c(Nc3cc(CC(=O)Nc4cccc(F)c4)[nH]n3)ncnc2c1 [AZD2811]
To be noted: max 1 µM. An outline of the steps:
as §1

Compound in test [18]: CC1=C(C(=CC=C1)Cl)NC(=O)C2=CN=C(S2)NC3=CC(=NC(=N3)C)N4CCN(CC4)CCO [Dasatinib]
To be noted: max 2 µM. In outline: as §1

Compound in test [19]: CN(CC[C@H](CSC1=CC=CC=C1)NC2=C(C=C(C=C2)S(=O)(=O)NC(=O)C3=CC=C(C=C3)N4CCC(CC4)[C@H](C5=CC=CC=C5C6=CC=C(C=C6)Cl)O)S(=O)(=O)C(F)(F)F)CCO [AZD4320]
Conditions: max 1 µM. An outline of the steps: as §1

Compound in test [20]: CC(=O)c1c(C)c2cnc(Nc3ccc(N4CCNCC4)cn3)nc2n(C2CCCC2)c1=O [Palbociclib]
To be noted: max 10 µM. In outline:
as §1

Compound in test [21]: C1CN(CCC1(C(=O)N[C@@H](CCO)C2=CC=C(C=C2)Cl)N)C3=NC=NC4=C3C=CN4 [Capivasertib]
In outline: as §1

Compound in test [22]: O=C(c1cc(Cc2n[nH]c(=O)c3ccccc23)ccc1F)N1CCN(C(=O)C2CC2)CC1 [Olaparib]
An outline of the steps: as §1

Compound in test [23]: C[C@@H](Oc1cc(-c2cnn(C3CCNCC3)c2)cnc1N)c1c(Cl)ccc(F)c1Cl [Crizotinib]
Conditions: max 10 µM. An outline of the steps:
as §1

Compound in test [24]: COc1nnc2ccc(N3CCC(c4ccc(OCCN5CCN(C)C(=O)[C@H]5C)cc4)CC3)nn12 [AZD5153]
To be noted: max 1 µM. An outline of the steps:
as §1

Compound in test [25]: CN(C)CCCOc1ccc(-c2ccc3ncc4c(c3c2)n(C2CCOCC2)c(=O)n4C)cn1 [AZD0156]
Conditions: max 3 µM. In outline: as §1

Compound in test [26]: Cc1cc2ncnn2cc1Nc1ncc2c(n1)n(C1CCOCC1)c(=O)n2C [AZD7648]
To be noted: max 10 µM. In outline: as §1

Compound in test [27]: COc1cc(Nc2ncc3c(n2)-c2ccc(Cl)cc2C(c2c(F)cccc2OC)=NC3)ccc1C(=O)O [Alisertib]
Conditions: max 10 µM. An outline of the steps: as §1

For HT-1197 (Bladder Carcinoma), the “IC50, cell viability 72 h” value in test [1] is above 1000 nM; in test [2], above 1000 nM; in test [3], above 300 nM; in test [4] it was above 1000 nM; in test [5] it was above 10000 nM; in test [6], above 3000 nM. Also, the “IC50, cell viability 72 h” value in [7] was above 1000 nM; in test [8], above 1000 nM; in test [9] it was 2150 nM; in test [10], above 1 nM; in test [11], above 1000 nM; in test [12] it was above 10000 nM. Moreover, the “IC50, cell viability 72 h” value is above 300 nM in test [13]; above 10000 nM in [14]; 2890 nM in test [15]; above 10000 nM in test [16]; above 1000 nM in test [17]; above 2000 nM in test [18]. The “IC50, cell viability 72 h” value in test [19] is above 1000 nM; in [20], above 10000 nM; in [21] (max 10 µM), above 10000 nM; in test [22] (max 10 µM) it was above 10000 nM; in test [23], above 10000 nM; in test [24], 697 nM. Also, the “IC50, cell viability 72 h” value in test [25] is above 3000 nM; in [26], above 10000 nM; in [27], above 10000 nM.

In the case of IGROV-1 (Ovarian Carcinoma), the “IC50, cell viability 72 h” value in test [1] was 19.6 nM; in [2], above 1000 nM; in test [3], 177 nM; in [4], 924 nM; in [5], 2900 nM; in [6], 1320 nM. Also, the “IC50, cell viability 72 h” value was 54 nM in test [7]; above 1000 nM in [8]; 191 nM in test [9]; above 1 nM in test [10]; above 1000 nM in test [11]; 1070 nM in test [12]. The “IC50, cell viability 72 h” value is above 300 nM in test [13]; 1550 nM in [14]; 17.2 nM in test [15]; 764 nM in test [16]; above 1000 nM in test [17]; 16.9 nM in [18]. The “IC50, cell viability 72 h” value is above 1000 nM in test [19]; 5560 nM in [20]; 438 nM in test [21] (max 10 µM); above 10000 nM in [22] (max 10 µM); 9830 nM in test [23]; 390 nM in [24]. Further, the “IC50, cell viability 72 h” value is above 3000 nM in test [25], above 10000 nM in [26] and 1630 nM in test [27].

Consider JURL-MK1 (Chronic Myelogenous Leukemia), for which the “IC50, cell viability 72 h” value was 5.76 nM in [1]; above 1000 nM in test [2]; 9.8 nM in [3]; 115 nM in test [4]; 228 nM in test [5]; above 3000 nM in [6]. In addition, the “IC50, cell viability 72 h” value in [7] was 2.55 nM; in test [8] it was above 1000 nM; in [9] it was 85.1 nM; in test [10], above 1 nM; in test [11], 778 nM; in [12], 339 nM. Besides, the “IC50, cell viability 72 h” value in [13] is above 300 nM; in test [14], above 10000 nM; in test [15], above 10000 nM; in test [16], above 10000 nM; in test [17] it was above 1000 nM; in test [18], below 2 nM. The “IC50, cell viability 72 h” value is 322 nM in test [19]; 248 nM in test [20]; above 10000 nM in [21] (max 10 µM); above 10000 nM in test [22] (max 10 µM); 320 nM in test [23]; 61.3 nM in test [24]. Further, the “IC50, cell viability 72 h” value was above 3000 nM in [25], above 10000 nM in [26] and 297 nM in [27].

Turning to M14 (Melanoma), the “IC50, cell viability 72 h” value in test [9] was 624 nM; in test [21] (max 3 µM), above 3000 nM; in test [22] (max 3 µM), above 3000 nM; in [25], above 3000 nM.

With NCI-H1048 (Small Cell Lung Carcinoma), the “IC50, cell viability 72 h” value in test [1] was above 1000 nM; in test [2], above 1000 nM; in test [3], 2.99 nM; in test [4], 261 nM; in test [5] it was above 10000 nM; in test [6] it was above 3000 nM. For the same cell line, the “IC50, cell viability 72 h” value was 132 nM in [7]; above 1000 nM in test [8]; 798 nM in test [9]; above 1 nM in [10]; above 10000 nM in test [12]; above 300 nM in test [13]. For the same cell line, the “IC50, cell viability 72 h” value in [14] is above 10000 nM; in test [15], 348 nM; in [16], above 10000 nM; in [17], 323 nM; in test [18] it was above 2000 nM; in test [19], 505 nM. Further, the “IC50, cell viability 72 h” value was above 10000 nM in [20]; 9210 nM in [21] (max 10 µM); above 10000 nM in test [22] (max 10 µM); above 10000 nM in test [23]; above 1000 nM in test [24]; above 3000 nM in [25]. Besides, the “IC50, cell viability 72 h” value was above 10000 nM in [26] and 497 nM in [27].

For the origin of these results see the supplement of paper PMC11061612.
